The values below come from patent EP0533352A2 (LYNXVALE LIMITED, priority 1991, dated 1993).

Assay [1] concerns carbachol (5x10⁻⁶M) induced muscle contraction. The experiment in a line: Carbachol mediated muscle contractions of rabbit bladder muscle strips. The class given is cell-based. As to conditions: GABA: 10 strips, not in 6 strips, baclofen: 6 strips, not in 3 strips.
Assay [2] relates to Rabbit urinary bladder smooth muscle strips. The experiment in a line: Nerve mediated contractions of rabbit urinary bladder muscle strips induced by electrical field stimulation. The class given is cell-based. Particulars: for effect on the frequency response curve: 1 to 40 Hz.

Read-outs that look alike come from different tables or passages of the source.

Consider `NCC(CC(=O)O)c1ccc(Cl)cc1` (racemic) [(±) baclofen], for which the “inhibition of carbachol induced muscle contraction” value in assay [1] is on record as “able to inhibit the muscle contraction”. Besides, in assay [2], the “EC₅₀ for inhibition of muscle contraction induced by electrical field stimulation” value is on record as 7.26 (±1.2)x10⁻⁶ M and the “maximum inhibition of muscle contraction induced by electrical field stimulation” value was 26.5(±1.58) %. In assay [2] (1x10⁻⁴M baclofen, n=13), the “effect on the frequency response curve” value is “significant inhibitory effect”. As to `NCC(O)(CS(=O)(=O)O)c1ccc(Cl)cc1` (centres unmarked) [2-hydroxysaclofen], in assay [2], the “antagonism of the inhibition produced by GABA (change of EC₅₀)” value is recorded as “significant antagonism” and the “change in the maximum response of GABA” value was “no significant difference”. For the molecule `NCCCP(O)O` [3-aminopropylphosphonous acid], the EC50 in assay [2] (Oryctolagus cuniculus, average over seven experiments, preliminary experiments, read-out: EC₅₀ for inhibition of electrically stimulated contraction) was determined as 250 ± 160 nM. In addition, the “maximum inhibition of muscle contraction induced by electrical field stimulation” value in assay [2] (percentage inhibition of control contraction, 10 Hz, 0.2 ms pulse width, 30V for 3 s, mean ± S.E.M.) came to 45 ± 18%. As to `NCCCC(=O)O` [GABA, gamma amino butyric acid], the “effect on the frequency response curve” value in assay [2] (1x10⁻⁵ GABA, n=15) is “significant right shift”. Regarding `NCc1cc(=O)[nH]o1` [Muscimol, muscimol], the “inhibitory effect on nerve mediated muscle contraction” value in assay [2] (concentration range of 1x10⁻⁸ to 1x10⁻⁵M, n=5) was “no inhibitory effect”.

Consider `NC1=N[C@H](O)[C@H]2[C@H]3O[C@]4(O)O[C@@H]([C@@H](O)[C@@]2(N1)[C@@H]4O)[C@]3(O)CO` [tetrodotoxin], for which the “effect on contractions obtained by electrical field stimulation” value in assay [2] was “abolishing the contractions”.
